Reference: PubChem BioAssay AID248 (DTP/NCI, 2004)
“And” between values parts separate entries of the source, which are not always exact repeats. Identical values can stand only once. Inconclusive results and toxic doses are left out. Cut-off read from the data, not from the text of the source: active = T/C of 150% or more; inactive = T/C below 125%.

Tested on: L1210 leukemia ip in BDF1 mice, survival T/C
Assay: NCI In Vivo Anticancer Drug Screen. Data for tumor model L1210 Leukemia (intraperitoneal) in B6D2F1 (BDF1) mice
Settings: endpoint: mean survival time, higher = longer survival
Outline: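 Transplanted-tumor mice were given test agent; controls received vehicle only. Survival readings from the two groups were divided (treated over control).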

[1] = dose: 100.0 mg/kg/injection, schedule: Q04DX003 (ip), vehicle: Klucel (hydroxypropylcellulose) (HPC)
[2] = dose: 200.0 mg/kg/injection, schedule: Q04DX003 (ip), vehicle: Klucel (hydroxypropylcellulose) (HPC)
[3] = dose: 400.0 mg/kg/injection, schedule: Q04DX003 (ip), vehicle: Klucel (hydroxypropylcellulose) (HPC)
[4] = dose: 100.0 mg/kg/injection, schedule: Q01DX009 (ip), vehicle: saline
[5] = dose: 200.0 mg/kg/injection, schedule: Q01DX009 (ip), vehicle: saline
[6] = dose: 400.0 mg/kg/injection, schedule: Q01DX009 (ip), vehicle: saline
[7] = dose: 100.0 mg/kg/injection, schedule: Q01DX009 (ip), vehicle: Klucel (hydroxypropylcellulose) (HPC)
[8] = dose: 200.0 mg/kg/injection, schedule: Q01DX009 (ip), vehicle: Klucel (hydroxypropylcellulose) (HPC)

Measured: T/C

NC(=O)/C(=C\c1ccc(N=Nc2ccc(/C=C(\C(N)=O)c3cccc4ccccc34)cc2)cc1)c1cccc2ccccc12
inactive: [1] 93 % of control | [2] 99 % of control | [3] 89 % of control

COC(=O)C(C)(C)O
inactive: [4] 102 % of control | dose: 100.0 mg/kg/injection, schedule: Q04DX003 (ip), vehicle: saline 104 % of control | [5] 102 % of control | dose: 200.0 mg/kg/injection, schedule: Q04DX003 (ip), vehicle: saline 100 % of control | [6] 97 % of control | dose: 400.0 mg/kg/injection, schedule: Q04DX003 (ip), vehicle: saline 104 % of control

CCNC(=O)c1cc(NC(=O)c2ccc(C(=O)Nc3cc(C(=O)NCC)cc(C4=NCCN4)c3)cc2)cc(C2=NCCN2)c1
inactive: dose: 14.25 mg/kg/injection, schedule: Q01DX015 (ip), vehicle: water 101 % of control | dose: 28.5 mg/kg/injection, schedule: Q01DX015 (ip), vehicle: water 98 % of control | dose: 57.0 mg/kg/injection, schedule: Q01DX015 (ip), vehicle: water 116 % of control

CN=C(Nc1ccc(Cl)c(Cl)c1)C(C)C
inactive: dose: 6.25 mg/kg/injection, schedule: Q04DX002 (ip), vehicle: DMSO 98 % of control | dose: 12.5 mg/kg/injection, schedule: Q04DX002 (ip), vehicle: DMSO 95 % of control | dose: 25.0 mg/kg/injection, schedule: Q04DX002 (ip), vehicle: DMSO 94 % of control and 106 % of control | dose: 44.0 mg/kg/injection, schedule: Q01DX Z (ip), vehicle: methylcellulose (MC) 91 % of control | dose: 50.0 mg/kg/injection, schedule: Q04DX002 (ip), vehicle: DMSO 97 % of control | dose: 66.0 mg/kg/injection, schedule: Q01DX Z (ip), vehicle: methylcellulose (MC) 98 % of control | dose: 100.0 mg/kg/injection, schedule: Q01DX Z (ip), vehicle: methylcellulose (MC) 101 % of control

O=C(NCCCCCCCCCCNC(=O)Nc1ccc(C2=NCCCN2)cc1)Nc1ccc(C2=NCCCN2)cc1
inactive: dose: 3.12 mg/kg/injection, schedule: Q01DX Z (ip), vehicle: carboxymethylcellulose (CMC) 108 % of control | dose: 6.25 mg/kg/injection, schedule: Q01DX Z (ip), vehicle: carboxymethylcellulose (CMC) 111 % of control | dose: 9.5 mg/kg/injection, schedule: Q01DX001 (ip), vehicle: other 101 % of control | dose: 19.0 mg/kg/injection, schedule: Q01DX001 (ip), vehicle: other 110 % of control | dose: 25.0 mg/kg/injection, schedule: Q01DX Z (ip), vehicle: carboxymethylcellulose (CMC) 122 % of control | dose: 38.0 mg/kg/injection, schedule: Q01DX001 (ip), vehicle: other 101 % of control

CC(=O)Oc1ccc2c(c1)C=CC1C2CCC2(C)/C(=N/NC(N)=S)CCC12 (stereo unspecified)
inactive: dose: 100.0 mg/kg/injection, schedule: Q04DX002 (ip), vehicle: Klucel (hydroxypropylcellulose) (HPC) 100 % of control | dose: 200.0 mg/kg/injection, schedule: Q04DX002 (ip), vehicle: Klucel (hydroxypropylcellulose) (HPC) 90 % of control | dose: 400.0 mg/kg/injection, schedule: Q04DX002 (ip), vehicle: Klucel (hydroxypropylcellulose) (HPC) 116 % of control

CCCCCCC1CCC(O)C1CCCCCCC(=O)O (stereo unspecified)
inactive: dose: 50.0 mg/kg/injection, schedule: Q04DX002 (ip), vehicle: saline 98 % of control | dose: 100.0 mg/kg/injection, schedule: Q04DX002 (ip), vehicle: saline 91 % of control | dose: 200.0 mg/kg/injection, schedule: Q04DX002 (ip), vehicle: saline 91 % of control

CCOc1ccc(NC(=O)N(O)C2(C#N)CCCCC2)cc1
inactive: dose: 100.0 mg/kg/injection, schedule: Q01DX001 (ip), vehicle: other 93 % of control | dose: 200.0 mg/kg/injection, schedule: Q01DX001 (ip), vehicle: other 96 % of control | dose: 400.0 mg/kg/injection, schedule: Q01DX001 (ip), vehicle: other 93 % of control

CCCCCCCCNNC(=O)c1ccccc1
inactive: dose: 100.0 mg/kg/injection, schedule: Q01DX001 (ip), vehicle: carboxymethylcellulose (CMC) 95 % of control | dose: 200.0 mg/kg/injection, schedule: Q01DX001 (ip), vehicle: carboxymethylcellulose (CMC) 97 % of control | dose: 400.0 mg/kg/injection, schedule: Q01DX001 (ip), vehicle: carboxymethylcellulose (CMC) 92 % of control

CC/C(=C\c1ccc(Cl)cc1)[N+](=O)[O-]
inactive: dose: 12.5 mg/kg/injection, schedule: Q01DX009 (ip), vehicle: Klucel (hydroxypropylcellulose) (HPC) 98 % of control | dose: 25.0 mg/kg/injection, schedule: Q01DX009 (ip), vehicle: Klucel (hydroxypropylcellulose) (HPC) 100 % of control | dose: 25.0 mg/kg/injection, schedule: Q04DX003 (ip), vehicle: Klucel (hydroxypropylcellulose) (HPC) 100 % of control | dose: 50.0 mg/kg/injection, schedule: Q01DX009 (ip), vehicle: Klucel (hydroxypropylcellulose) (HPC) 88 % of control | dose: 50.0 mg/kg/injection, schedule: Q04DX003 (ip), vehicle: Klucel (hydroxypropylcellulose) (HPC) 105 % of control | [1] 101 % of control and 111 % of control

CCCCCCCC(O)CCC (stereo unspecified)
inactive: [7] 94 % of control | [1] 100 % of control | [8] 104 % of control | [2] 97 % of control | [3] 92 % of control

COc1cc(C=C(C#N)C#N)cc(OC)c1OC
inactive: dose: 25.0 mg/kg/injection, schedule: Q04DX002 (ip), vehicle: gum acacia 100 % of control | dose: 50.0 mg/kg/injection, schedule: Q04DX002 (ip), vehicle: gum acacia 110 % of control | dose: 100.0 mg/kg/injection, schedule: Q04DX002 (ip), vehicle: gum acacia 122 % of control and 91 % of control

O=C(CC(=O)c1ccccc1)Cc1ccccc1.O=C(CC(=O)c1ccccc1)Cc1ccccc1.[Cu]
inactive: [1] 94 % of control | [2] 97 % of control | [3] 104 % of control

C=CCOc1ccccc1Cl
inactive: [7] 110 % of control | [1] 94 % of control | [8] 88 % of control | [2] 106 % of control | dose: 400.0 mg/kg/injection, schedule: Q01DX009 (ip), vehicle: Klucel (hydroxypropylcellulose) (HPC) 106 % of control | [3] 103 % of control

O=C(Nc1ccc(Cl)cc1Cl)OCCOc1ccc([N+](=O)[O-])cc1
inactive: dose: 50.0 mg/kg/injection, schedule: Q01DX009 (ip), vehicle: saline with Tween-80 102 % of control | dose: 100.0 mg/kg/injection, schedule: Q01DX009 (ip), vehicle: saline with Tween-80 98 % of control | dose: 200.0 mg/kg/injection, schedule: Q01DX009 (ip), vehicle: saline with Tween-80 93 % of control

CCCCCCCCCCCCNC(C1=C(O)c2ccccc2C(=O)C1=O)c1ccccc1 (stereo unspecified)
inactive: dose: 100.0 mg/kg/injection, schedule: Q01DX001 (ip), vehicle: saline with Tween-80 95 % of control | dose: 200.0 mg/kg/injection, schedule: Q01DX001 (ip), vehicle: saline with Tween-80 88 % of control | dose: 400.0 mg/kg/injection, schedule: Q01DX001 (ip), vehicle: saline with Tween-80 95 % of control

O=C(O)C1C2C=CC(C3C=CC32)C1C(=O)O (stereo unspecified)
inactive: dose: 6.25 mg/kg/injection, schedule: Q01DX009 (ip), vehicle: saline 98 % of control | dose: 12.5 mg/kg/injection, schedule: Q01DX009 (ip), vehicle: saline 110 % of control | dose: 25.0 mg/kg/injection, schedule: Q01DX009 (ip), vehicle: saline 102 % of control and 115 % of control | dose: 50.0 mg/kg/injection, schedule: Q01DX009 (ip), vehicle: saline 96 % of control and 105 % of control | [4] 100 % of control | [5] 100 % of control | [6] 94 % of control

CCSC(C(OC(C)=O)C(OC(C)=O)C(OC(C)=O)C(COC(C)=O)OC(C)=O)n1cnc2c(=S)nc[nH]c21 (stereo unspecified)
inactive: dose: 100.0 mg/kg/injection, schedule: Q04DX003 (ip), vehicle: saline sonified 102 % of control | dose: 200.0 mg/kg/injection, schedule: Q04DX003 (ip), vehicle: saline sonified 96 % of control | dose: 400.0 mg/kg/injection, schedule: Q04DX003 (ip), vehicle: saline sonified 91 % of control
